Data on 37 molecules can be found in patent US9890117B2, “Benzamide compounds and related methods of use” (Northwestern University, priority 2012, dated 2018).

This assay deals with T1, SIRT2 (Homo sapiens, UniProt Q8IXJ6).
T1 construct: recombinant active enzymes SIRT1, SIRT2, and the catalytically active fragment of SIRT3
T1 sequence (Q8IXJ6 1-389): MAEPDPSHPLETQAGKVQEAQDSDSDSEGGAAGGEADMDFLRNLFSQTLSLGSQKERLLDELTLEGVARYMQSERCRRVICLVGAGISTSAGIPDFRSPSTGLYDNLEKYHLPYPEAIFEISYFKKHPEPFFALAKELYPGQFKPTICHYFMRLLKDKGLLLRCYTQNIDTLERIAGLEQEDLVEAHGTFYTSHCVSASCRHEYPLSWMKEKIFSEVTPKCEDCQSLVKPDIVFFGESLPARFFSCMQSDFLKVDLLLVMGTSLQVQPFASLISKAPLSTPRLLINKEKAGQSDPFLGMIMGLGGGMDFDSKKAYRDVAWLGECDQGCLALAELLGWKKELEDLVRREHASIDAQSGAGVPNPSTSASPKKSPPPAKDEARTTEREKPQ
As to the kind of experiment: Fluor-de-Lys biochemical sirtuin deacetylation assay, SIRT2. The conditions noted are these: for SIRT2 inhibition potency compared with AK-1: dose-response, five doses, side-by-side with AK-1.

[1] abbreviates: sulfone, sulfoxide, thioether derivatives of C2-8 scaffold.

By inhibition is commonly meant the percentage by which the read-out fell short of the control. A low value points to a response near the control.

SMILES strings stand for the structures. Counter-ions that a name gives are not always drawn.

As to `CN(c1ccc(Cl)cc1)S(=O)(=O)c1cccc(C(=O)NCc2ccccn2)c1` [Compound 53, 3-(N-(4-chlorophenyl)-N-methylsulfamoyl)-N-(pyridin-2-ylmethyl)benzamide], the “% of SIRT2 Inhibition at 10 μM” value (C2-8 derivatives) was determined as 0%.
In the case of `CN(c1ccc(Cl)cc1)S(=O)(=O)c1cccc(C(=O)NCc2ccccn2)c1` [Compound 62, 3-(N-(4-chlorophenyl)-N-methylsulfamoyl)-N-(pyridin-2-ylmethyl)benzamide], the “% of SIRT2 Inhibition at 10 μM” value (C2-8 derivatives) amounted to 3%.
In turn, `CN(c1ccc(Br)cc1)S(=O)(=O)c1cccc(C(=O)Nc2ccc(Cl)nn2)c1` [Compound 85, 3-(N-(4-bromophenyl)-N-methylsulfamoyl)-N-(6-chloropyridazin-3-yl)benzamide] came in with an inhibition at 10 µM (C2-8 derivatives) of 16%.
With `CC(=O)c1ccc(NC(=O)c2cccc(S(=O)(=O)N(C)c3ccc(C(C)=O)cc3)c2)cc1` [Compound 109, N-(4-Acetylphenyl)-3-(N-(4-acetylphenyl)-N-methylsulfamoyl)benzamide], the “SIRT2 inhibition potency compared with AK-1” value is on record as “equal or just slightly better potency”.
`CN(c1ccc(S(C)(=O)=O)cc1)S(=O)(=O)c1cccc(C(=O)Nc2ccc(Cl)cc2)c1` [Compound 117, N-(4-Chlorophenyl)-3-(N-methyl-N-(4-(methylsulfonyl)phenyl)sulfamoyl)benzamide]: the “SIRT2 inhibition potency compared with AK-1” value is given as “equal or just slightly better potency”.
For `C[S+]([O-])c1cccc(NC(=O)c2cccc(S(=O)(=O)N3CCCCCC3)c2)c1` (stereo not shown) [Compound 138, 3-(azepan-1-ylsulfonyl)-N-(3-(methylsulfinyl)phenyl)benzamide], where the note is “AK-1 derivatives”, the “% of SIRT2 Inhibition at 10 μM” value was determined as 4%.
On the same count and under the same terms, the figure for `C[S+]([O-])c1cccc(NC(=O)c2cccc(S(=O)(=O)N3CCCCCC3)c2)c1` (stereo not shown) [Compound 141, 3-(azepan-1-ylsulfonyl)-N-(3-(methylsulfinyl)phenyl)benzamide] is 1%.
The molecule `O=C(Nc1ccc(Cl)cc1)c1cccc(S(=O)(=O)Cc2ccc(Cl)cc2)c1` [Compound 171, 3-((4-chlorobenzyl)sulfonyl)-N-(4-chlorophenyl)benzamide] gave an inhibition at 10 µM under setting [1] of 0%.
On the same count and under the same terms, as for `O=C(Nc1ccc(Br)cc1)c1cccc(S(=O)(=O)Cc2ccc(Cl)cc2)c1` [Compound 172, N-(4-bromophenyl)-3-((4-chlorobenzyl)sulfonyl)benzamide], the figure is 0%.
`O=C(Nc1ccc(Cl)cn1)c1cccc(S(=O)(=O)Cc2ccc(Cl)cc2)c1` [Compound 173, 3-((4-chlorobenzyl)sulfonyl)-N-(5-chloropyridin-2-yl)benzamide] registered an inhibition at 10 µM under setting [1] of 2%.
`C[S+]([O-])c1ccc(NC(=O)c2cccc(S(=O)(=O)Cc3ccc(Cl)cc3)c2)cc1` (stereo not shown) [Compound 175, 3-((4-chlorobenzyl)sulfonyl)-N-(4-(methylsulfinyl)phenyl)benzamide]: at 10 µM the inhibition under setting [1] was 31%.
In the case of `N#Cc1ccc(NC(=O)c2cccc(S(=O)(=O)Cc3ccc(Cl)cc3)c2)nc1` [Compound 176, 3-((4-chlorobenzyl)sulfonyl)-N-(5-cyanopyridin-2-yl)benzamide], 10 µM produced 36% inhibition under setting [1].
With `CS(=O)(=O)c1ccc(NC(=O)c2cccc(S(=O)(=O)Cc3ccc(Cl)cc3)c2)cc1` [Compound 177, 3-((4-chlorobenzyl)sulfonyl)-N-(4-(methylsulfonyl)phenyl)benzamide], under setting [1], the inhibition at 10 µM stood at 17%.
`CC(=O)c1ccc(NC(=O)c2cccc(S(=O)(=O)Cc3ccc(Cl)cc3)c2)cc1` [Compound 178, N-(4-acetylphenyl)-3-((4-chlorobenzyl)sulfonyl)benzamide] gave an inhibition at 10 µM under setting [1] of 23%.
Still for that read-out and setting: the figure for `O=C(Nc1ccc(Cl)nn1)c1cccc(S(=O)(=O)Cc2ccc(Cl)cc2)c1` [Compound 179, 3-((4-chlorobenzyl)sulfonyl)-N-(6-chloropyridazin-3-yl)benzamide] is 0%; for `COc1ccc(CS(=O)(=O)c2cccc(C(=O)Nc3ccc(C#N)cc3)c2)cc1` [Compound 180, N-(4-cyanophenyl)-3-((4-methoxybenzyl)sulfonyl)benzamide] it is 50%.
In the case of `N#Cc1ccc(NC(=O)c2cccc(SCc3ccc(Cl)cc3)c2)cc1` [Compound 181, 3-((4-chlorobenzyl)thio)-N-(4-cyanophenyl)benzamide], the inhibition at 10 µM under setting [1] came out at 81%.
Still for that read-out and setting: the figure for `CSc1ccc(CSc2cccc(C(=O)Nc3ccc(C#N)cc3)c2)cc1` [Compound 183, N-(4-cyanophenyl)-3-((4-(methylthio)benzyl)thio)benzamide] is 83%; for `N#Cc1ccc(NC(=O)c2cccc([S+]([O-])Cc3ccc(Cl)cc3)c2)cc1` (stereo not shown) [Compound 186, N-(4-cyanophenyl)-3-((4-chlorobenzyl)sulfinyl)benzamide] it is 47%; for `C[S+]([O-])c1ccc(NC(=O)c2cccc([S+]([O-])Cc3ccc(Cl)cc3)c2)cc1` (stereo not shown) [Compound 187, 3-((4-chlorobenzyl)sulfinyl)-N-(4-(methylsulfinyl)phenyl)benzamide] it is 24%.
For the molecule `C[S+]([O-])c1ccc(NC(=O)c2cccc(S(=O)(=O)Cc3ccc(Cl)cc3)c2)cc1` (stereo not shown) [Compound 188, 3-((4-chlorobenzyl)sulfonyl)-N-(4-(methylsulfinyl)phenyl)benzamide], under setting [1], the “% of SIRT2 Inhibition at 10 μM” value is 18%.
Take `COc1ccc(C[S+]([O-])c2cccc(C(=O)Nc3ccc(C#N)cc3)c2)cc1` (stereo not shown) [Compound 189, N-(4-cyanophenyl)-3-((4-methoxybenzyl)sulfinyl)benzamide]: the inhibition at 10 µM under setting [1] amounted to 21%.
As for `CN(c1ccc(Cl)cc1)S(=O)(=O)c1cccc(C(=O)Nc2ccc(CN)cc2)c1` [Compound 203Aa, N-(4-(aminomethyl)phenyl)-3-(N-(4-chlorophenyl)-N-methylsulfamoyl)benzamide], 10 µM produced 15% inhibition.
Still for that read-out and setting: as for `CN(c1ccc([S+](C)[O-])cc1)S(=O)(=O)c1cccc(C(=O)Nc2ccc(Cl)cc2F)c1` (stereo not shown) [Compound 203Ad, N-(4-chloro-2-fluorophenyl)-3-(N-methyl-N-(4-(methylsulfinyl)phenyl)sulfamoyl)-benzamide], the figure is 0%; as for `CN(C(=O)c1ccnc(S(=O)(=O)N(C)c2ccc(Cl)cc2)c1)c1ccc(S(C)(=O)=O)cc1` [Compound 203Ao, 2-(N-(4-chlorophenyl)-N-methylsulfamoyl)-N-methyl-N-(4-(methylsulfonyl)phenyl)-isonicotinamide], 0%.
Same read-out and setting: as for `C[C@@H](N)c1ccc(N(C)S(=O)(=O)c2cccc(C(=O)Nc3ccc(C#N)cc3)c2)cc1` [Compound 203At, (R)-3-(N-(4-(1-aminoethyl)phenyl)-N-methylsulfamoyl)-N-(4-cyanophenyl)-benzamide hydrochloride], the figure is 38%; as for `C[C@H](N)c1ccc(N(C)S(=O)(=O)c2cccc(C(=O)Nc3ccc(C#N)cc3)c2)cc1` [Compound 203Au, (S)-3-(N-(4-(1-aminoethyl)phenyl)-N-methylsulfamoyl)-N-(4-cyanophenyl) benzamide hydrochloride], 39%; as for `CN(c1ccc(O)cc1)S(=O)(=O)c1cccc(C(=O)Nc2ccc(C#N)cc2)c1` [Compound 203Ax, N-(4-cyanophenyl)-3-(N-(4-hydroxyphenyl)-N-methylsulfamoyl)benzamide], 51%.
In turn, `Cc1cc(Br)ccc1NC(=O)c1cccc(S(=O)(=O)N(C)c2ccc(Br)cc2)c1` [Compound 203e, N-(4-bromo-2-methylphenyl)-3-(N-(4-bromophenyl)-N-methylsulfamoyl)benzamide] showed an inhibition at 10 µM of 0%.
Molecule `Nc1cccc(NC(=O)c2cccc(S(=O)(=O)N3CCCCCC3)c2)c1` [Compound 203i, N-(3-aminophenyl)-3-(azepan-1-ylsulfonyl)benzamide] yielded an inhibition at 10 µM of 43%.
Regarding `CN(C)c1cccc(NC(=O)c2cccc(S(=O)(=O)N3CCCCCC3)c2)c1` [Compound 203j, 3-(azepan-1-ylsulfonyl)-N-(3-(dimethylamino)phenyl)benzamide], testing at 10 µM gave an inhibition of 61%.
Consider `CN(c1ccc(Br)cc1)S(=O)(=O)c1cccc(C(=O)Nc2ccc(Br)cc2F)c1` [Compound 203r, N-(4-bromo-2-fluorophenyl)-3-(N-(4-bromophenyl)-N-methylsulfamoyl)benzamide], for which the inhibition at 10 µM was 30%.
Still for that read-out and setting: the figure for `CN(C(=O)c1cccc(S(=O)(=O)N(C)c2ccc(Br)cc2)c1)c1ccc(F)cc1F` [Compound 203t, 3-(N-(4-bromophenyl)-N-methylsulfamoyl)-N-(2,4-difluorophenyl)-N-methyl-benzamide] is 17%; for `CS(=O)(=O)c1ccc(CS(=O)(=O)c2cccc(C(=O)Nc3ccc(C#N)cc3)c2)cc1` [Compound 212a, N-(4-cyanophenyl)-3-((4-(methylsulfonyl)benzyl)sulfonyl)benzamide] it is 19%.
As to `C[C@@H](Oc1cccc(C(=O)Nc2ccc(C#N)cc2)c1)c1ccc(C#N)cc1` [Compound 216Ag, (R)—N-(4-cyanophenyl)-3-(1-(4-cyanophenyl)ethoxy)benzamide], the inhibition at 10 µM is 92%.
Take `CC(Oc1cccc(C(=O)Nc2ccc(C#N)cc2)c1)c1ccc(C2COC2)cc1` (stereo not shown) [Compound 216Ah, N-(4-cyanophenyl)-3-(1-(4-(oxetan-3-yl)phenyl)ethoxy)benzamide]: the inhibition at 10 µM amounted to 41%.
Regarding `CC(=O)c1ccc(C(C)(C)Oc2cccc(C(=O)Nc3ccc(C#N)cc3)c2)cc1` [Compound 216Ai, 3-((2-(4-acetylphenyl)propan-2-yl)oxy)-N-(4-cyanophenyl)benzamide], the inhibition at 10 µM came to 80%.
